Assay results taken from US8007995B2 (Bristol-Myers Squibb Company, priority 2005, dated 2011).

Key:
Experiment in all cases: Proliferation assay (cell counts, growth inhibition)
Format in all cases: cell-based, human
KPL-1 = details: Luminal, ER Positive, HER-2 Normal, inhibition at 1 μM
MDA-MB-231 = details: Post-EMT, ER Negative, HER-2 Normal, inhibition at 1 μM
Description: (§1) The cell lines MDA-MB-415, MDA-MB-134, HCC-1500, ZR-75-30, HCC-202, HCC-1419, HCC-38, HCC-70, HCC-1187, HCC-1806, HCC-1937, HCC-1954, MDA-MB-436, HCC-1569, Hs578t, HCC-1143, MDA-MB-175, BT-474, SK-BR-3, MDA-MB-361, UAC-893, UACC-812, UACC-732, T-47D, MDA-MB-453, MDA-MB-468, CAMA-1, MDA-MB-157, MCF-7, MDA-MB-435, ZR-75-1, BT-20, and MDA-MB-231 were obtained from American Type Culture Collection (Rockville, Md.). The cell lines EFM-192A, KPL-1, EFM-19 and CAL-51 were obtained from the German Tissue Repository DSMZ (Braunschweig Germany), and the cell lines SUM-190 and SUM-225 were obtained from the University of Michigan (Ann Arbor, Mich.). MDA-MB-134, MDA-MB415, MDA-MB-436, MDA-MB-175, UACC-893, UACC-812, and MDA-MB-157 cells were cultured in L15 medium supplemented with 10% heat-inactivated fetal bovine serum (FBS), […] glutamine and 1% penicillin G-streptomycin-fungizone solution (PSF, Irvine Scientific, Santa Ana, Calif.). CAL-51, KPL-1, Hs578t cells were grown in DMEM supplemented with 10% heat-inactivated FBS and PSF, as above. SUM-190 and SUM-225 cells were cultured in HAM's F12 supplemented with 5% heat-inactivated FBS, PSF, […] hydrocortisone. The remaining cell lines were cultured in RPMI 1640 supplemented with 10% heat-inactivated FBS, 2 mmol/L glutamine, and PSF.
(§2) Cells were seeded in duplicate at 5,000 to 10,000 cells per well in 24-well plates. […] Control wells without drug were seeded as well. Both the adherent and floating fractions of cells were counted on days 2, 5 and 7 for both treatment and control wells. After trypsinization cells were placed in Isotone solution and counted immediately using a Coulter Z2 particle counter (Beckman Coulter Inc, Fullerton, Calif.).
(§3) Growth inhibition was calculated [(1-experimental value/control value)×100] for each day adding both the values obtained for the floating cells and the adherent cells. Pearson-Chi-square analysis was performed to identify a correlation between subtype and sensitivity to dasatinib. Dasatinib was a gift from Frank Lee at Bristol-Meyers-Squibb.

MDA-MB-436 = details: Post-EMT, ER Negative, HER-2 Normal, inhibition at 1 μM
Description: as §1, §2, §3

HCC-1419 = details: Luminal, ER Positive, HER-2 Amplified, inhibition at 1 μM
Description: as §1, §2, §3

CAMA-1 = details: Luminal, ER Positive, HER-2 Normal, inhibition at 1 μM
Description: as §1, §2, §3

SK-BR-3 = details: Luminal, ER Negative, HER-2 Amplified, inhibition at 1 μM
Description: as §1, §2, §3

MDA-MB-134 = details: Luminal, ER Positive, HER-2 Normal, inhibition at 1 μM
Description: as §1, §2, §3

ZR-75-30 = details: Luminal, ER Positive, HER-2 Amplified, inhibition at 1 μM
Description: as §1, §2, §3

MDA-MB-157 = details: Post-EMT, ER Negative, HER-2 Normal, inhibition at 1 μM
Description: as §1, §2, §3

BT-20 = details: Basal, ER Negative, HER-2 Normal, inhibition at 1 μM
Description: as §1, §2, §3

HCC-1187 = details: Basal, ER Negative, HER-2 Normal, inhibition at 1 μM
Description: as §1, §2, §3

CAL-51 = details: Post-EMT, ER Negative, HER-2 Normal, inhibition at 1 μM
Description: as §1, §2, §3

HCC-1500 = details: Luminal, ER Positive, HER-2 Normal, inhibition at 1 μM
Description: as §1, §2, §3

MDA-MB-361 = details: Luminal, ER Positive, HER-2 Amplified, inhibition at 1 μM
Description: as §1, §2, §3

MDA-MB-175 = details: Luminal, ER Positive, HER-2 Normal, inhibition at 1 μM
Description: as §1, §2, §3

SUM-190 = details: Luminal, ER Negative, HER-2 Amplified, inhibition at 1 μM
Description: as §1, §2, §3

UACC-732 = details: Luminal, ER Positive, HER-2 Amplified, inhibition at 1 μM
Description: as §1, §2, §3

Hs578t = details: Post-EMT, ER Negative, HER-2 Normal, inhibition at 1 μM
Description: as §1, §2, §3

SUM-225 = details: Luminal, ER Negative, HER-2 Amplified, inhibition at 1 μM
Description: as §1, §2, §3

MDA-MB-468 = details: Basal, ER Negative, HER-2 Normal, inhibition at 1 μM
Description: as §1, §2, §3

ZR-75-1 = details: Luminal, ER Positive, HER-2 Normal, inhibition at 1 μM
Description: as §1, §2, §3

EFM-192A = details: Luminal, ER Positive, HER-2 Amplified, inhibition at 1 μM
Description: as §1, §2, §3

HCC-202 = details: Luminal, ER Positive, HER-2 Amplified, inhibition at 1 μM
Description: as §1, §2, §3

BT-474 = details: Luminal, ER Positive, HER-2 Amplified, inhibition at 1 μM
Description: as §1, §2, §3

MDA-MB-415 = details: Luminal, ER Positive, HER-2 Normal, inhibition at 1 μM
Description: as §1, §2, §3

HCC-1937 = details: Basal, ER Negative, HER-2 Normal, inhibition at 1 μM
Description: as §1, §2, §3

MCF-7 = details: Luminal, ER Positive, HER-2 Normal, inhibition at 1 μM
Description: as §1, §2, §3

HCC-1569 = details: Post-EMT, ER Negative, HER-2 Amplified, inhibition at 1 μM
Description: as §1, §2, §3

HCC 38 = details: Basal, ER Negative, HER-2 Normal, inhibition at 1 μM
Description: as §1, §2, §3

HCC-1143 = details: Basal, ER Negative, HER-2 Normal, inhibition at 1 μM
Description: as §1, §2, §3

UACC-893 = details: Luminal, ER Negative, HER-2 Amplified, inhibition at 1 μM
Description: as §1, §2, §3

HCC-1954 = details: Basal, ER Negative, HER-2 Amplified, inhibition at 1 μM
Description: as §1, §2, §3

HCC-1806 = details: Basal, ER Negative, HER-2 Normal, inhibition at 1 μM
Description: as §1, §2, §3

HCC-70 = details: Basal, ER Negative, HER-2 Normal, inhibition at 1 μM
Description: as §1, §2, §3

T-47D = details: Luminal, ER Positive, HER-2 Normal, inhibition at 1 μM
Description: as §1, §2, §3

EFM-19 = details: Luminal, ER Positive, HER-2 Normal, inhibition at 1 μM
Description: as §1, §2, §3

UACC-812 = details: Luminal, ER Positive, HER-2 Amplified, inhibition at 1 μM
Description: as §1, §2, §3

MDA-MB-453 = details: Luminal, ER Negative, HER-2 Amplified, inhibition at 1 μM
Description: as §1, §2, §3

MDA-MB-435 = details: Post-EMT, ER Negative, HER-2 Normal, inhibition at 1 μM
Description: as §1, §2, §3

Cc1nc(Nc2ncc(C(=O)Nc3c(C)cccc3Cl)s2)cc(N2CCN(CCO)CC2)n1 [Dasatinib, N-(2-chloro-6-methylphenyl)-2-[[6-[4-(2-hydroxyethyl)-1-piperazinyl]-2-methyl-4-pyrimidinyl]amino]-5-thiazolecarboxamide]
Response to Dasatinib in vitro (KPL-1): Resistant (<40% inhibition at 1 μM assigned to the resistant group) | Response to Dasatinib in vitro (MDA-MB-231): Highly Sensitive (greater than 60% inhibition being assigned to the highly sensitive group) | Response to Dasatinib in vitro (MDA-MB-231; listed as dasatinib): highly sensitive | Response to Dasatinib in vitro (MDA-MB-436): Highly Sensitive (greater than 60% inhibition being assigned to the highly sensitive group) | Response to Dasatinib in vitro (HCC-1419): Moderately Sensitive (40-59% inhibition being assigned to the moderately sensitive group) | Response to Dasatinib in vitro (CAMA-1): Resistant (<40% inhibition at 1 μM assigned to the resistant group) | Response to Dasatinib in vitro (SK-BR-3): Resistant (<40% inhibition at 1 μM assigned to the resistant group) | Response to Dasatinib in vitro (MDA-MB-134): Resistant (<40% inhibition at 1 μM assigned to the resistant group) | Response to Dasatinib in vitro (ZR-75-30): Resistant (<40% inhibition at 1 μM assigned to the resistant group) | Response to Dasatinib in vitro (MDA-MB-157): Highly Sensitive (greater than 60% inhibition being assigned to the highly sensitive group) | Response to Dasatinib in vitro (BT-20): Resistant (<40% inhibition at 1 μM assigned to the resistant group) | Response to Dasatinib in vitro (HCC-1187): Moderately Sensitive (40-59% inhibition being assigned to the moderately sensitive group) | Response to Dasatinib in vitro (CAL-51): Highly Sensitive (greater than 60% inhibition being assigned to the highly sensitive group) | Response to Dasatinib in vitro (HCC-1500): Resistant (<40% inhibition at 1 μM assigned to the resistant group) | Response to Dasatinib in vitro (MDA-MB-361): Moderately Sensitive (40-59% inhibition being assigned to the moderately sensitive group) | Response to Dasatinib in vitro (MDA-MB-175): Resistant (<40% inhibition at 1 μM assigned to the resistant group) | Response to Dasatinib in vitro (SUM-190): Resistant (<40% inhibition at 1 μM assigned to the resistant group) | Response to Dasatinib in vitro (UACC-732): Resistant (<40% inhibition at 1 μM assigned to the resistant group) | Response to Dasatinib in vitro (Hs578t): Highly Sensitive (greater than 60% inhibition being assigned to the highly sensitive group) | Response to Dasatinib in vitro (SUM-225): Resistant (<40% inhibition at 1 μM assigned to the resistant group) | Response to Dasatinib in vitro (MDA-MB-468): Resistant (<40% inhibition at 1 μM assigned to the resistant group) | Response to Dasatinib in vitro (MDA-MB-468; listed as dasatinib): resistant | Response to Dasatinib in vitro (ZR-75-1): Resistant (<40% inhibition at 1 μM assigned to the resistant group) | Response to Dasatinib in vitro (EFM-192A): Resistant (<40% inhibition at 1 μM assigned to the resistant group) | Response to Dasatinib in vitro (HCC-202): Resistant (<40% inhibition at 1 μM assigned to the resistant group) | Response to Dasatinib in vitro (BT-474): Moderately Sensitive (40-59% inhibition being assigned to the moderately sensitive group) | Response to Dasatinib in vitro (MDA-MB-415): Resistant (<40% inhibition at 1 μM assigned to the resistant group) | Response to Dasatinib in vitro (HCC-1937): Moderately Sensitive (40-59% inhibition being assigned to the moderately sensitive group) | Response to Dasatinib in vitro (MCF-7): Moderately Sensitive (40-59% inhibition being assigned to the moderately sensitive group) | Response to Dasatinib in vitro (HCC-1569): Resistant (<40% inhibition at 1 μM assigned to the resistant group) | Response to Dasatinib in vitro (HCC 38): Resistant (<40% inhibition at 1 μM assigned to the resistant group) | Response to Dasatinib in vitro (HCC-1143): Moderately Sensitive (40-59% inhibition being assigned to the moderately sensitive group) | Response to Dasatinib in vitro (UACC-893): Resistant (<40% inhibition at 1 μM assigned to the resistant group) | Response to Dasatinib in vitro (HCC-1954): Moderately Sensitive (40-59% inhibition being assigned to the moderately sensitive group) | Response to Dasatinib in vitro (HCC-1806): Highly Sensitive (greater than 60% inhibition being assigned to the highly sensitive group) | Response to Dasatinib in vitro (HCC-70): Highly Sensitive (greater than 60% inhibition being assigned to the highly sensitive group) | Response to Dasatinib in vitro (T-47D): Moderately Sensitive (40-59% inhibition being assigned to the moderately sensitive group) | Response to Dasatinib in vitro (EFM-19): Moderately Sensitive (40-59% inhibition being assigned to the moderately sensitive group) | Response to Dasatinib in vitro (UACC-812): Resistant (<40% inhibition at 1 μM assigned to the resistant group) | Response to Dasatinib in vitro (MDA-MB-453): Resistant (<40% inhibition at 1 μM assigned to the resistant group) | Response to Dasatinib in vitro (MDA-MB-435): Highly Sensitive (greater than 60% inhibition being assigned to the highly sensitive group) | Response to Dasatinib in vitro (MDA-MB-435; listed as dasatinib): highly sensitive
